From ChEMBL document CHEMBL1909046, “DrugMatrix in vitro pharmacology data”

What was measured:
[1] = DRUGMATRIX: Interleukin IL-1 radioligand binding (ligand: [125I] interleukin 1beta); format: cell membranes, Membrane; conditions: nih3t3; Not Active = under 50% inhibition at 10 µM
[2] = DRUGMATRIX: Sodium/nucleoside co-transporter radioligand binding (ligand: nitrobenzylthioinosine); format: cell membranes, Cavia porcellus, Dunkin-Hartley, Cerebral cortex, Membrane; conditions: Not Active = under 50% inhibition at 10 µM
[3] = DRUGMATRIX: Leukotriene, BLT (LTB4) radioligand binding (ligand: [3H]LTB4); format: cell membranes, Membrane; conditions: u-937; Not Active = under 50% inhibition at 10 µM
[4] = molecular target: T1, Neuropeptide Y receptor type 1 (Homo sapiens, UniProt P25929); format: cell membranes, Membrane; conditions: sk-n-mc; note: in other assays of this panel Not Active means under 50% inhibition at 10 µM
T1 sequence (P25929 whole entry): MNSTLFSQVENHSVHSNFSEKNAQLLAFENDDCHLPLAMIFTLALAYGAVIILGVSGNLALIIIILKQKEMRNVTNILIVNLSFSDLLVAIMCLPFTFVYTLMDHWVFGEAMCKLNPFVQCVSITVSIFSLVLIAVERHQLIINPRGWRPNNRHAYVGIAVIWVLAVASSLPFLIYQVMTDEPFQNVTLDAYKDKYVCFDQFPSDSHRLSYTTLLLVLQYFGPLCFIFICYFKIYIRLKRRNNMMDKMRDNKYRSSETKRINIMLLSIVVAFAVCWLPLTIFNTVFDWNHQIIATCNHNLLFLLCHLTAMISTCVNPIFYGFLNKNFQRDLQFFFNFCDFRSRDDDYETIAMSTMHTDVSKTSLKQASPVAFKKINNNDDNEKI

[5] = molecular target: Beta-2 adrenergic receptor (Homo sapiens, UniProt P07550); experiment: DRUGMATRIX: Adrenergic beta2 radioligand binding (ligand: [3H] CGP-12177); format: cell membranes, Membrane; conditions: cho; Not Active = under 50% inhibition at 10 µM
Cytochrome P450 1A2 = molecular target: T2, Cytochrome P450 1A2 (Homo sapiens, UniProt P05177); conditions: bti-tn-5b1-4; note: in other assays of this panel Not Active means under 50% inhibition at 10 µM
T2 sequence (P05177 whole entry): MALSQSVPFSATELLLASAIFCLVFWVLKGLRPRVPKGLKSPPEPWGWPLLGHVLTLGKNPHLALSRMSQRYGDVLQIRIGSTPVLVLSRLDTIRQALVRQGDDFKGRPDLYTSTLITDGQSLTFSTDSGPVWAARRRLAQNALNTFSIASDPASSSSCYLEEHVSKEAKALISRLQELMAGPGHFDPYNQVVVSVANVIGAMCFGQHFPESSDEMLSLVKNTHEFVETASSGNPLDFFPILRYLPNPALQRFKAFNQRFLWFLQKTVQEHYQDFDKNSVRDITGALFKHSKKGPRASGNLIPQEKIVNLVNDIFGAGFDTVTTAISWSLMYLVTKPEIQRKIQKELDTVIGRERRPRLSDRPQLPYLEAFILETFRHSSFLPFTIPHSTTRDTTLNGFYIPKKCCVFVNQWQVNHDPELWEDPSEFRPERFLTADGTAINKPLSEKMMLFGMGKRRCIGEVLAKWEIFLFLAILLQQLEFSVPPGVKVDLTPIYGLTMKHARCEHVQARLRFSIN

[6] = DRUGMATRIX: Glutamate, Kainate radioligand binding (ligand: [3H] Kainic acid); format: cell membranes, Rattus norvegicus, Wistar, Brain, Membrane; conditions: Not Active = under 50% inhibition at 10 µM
[7] = DRUGMATRIX: Calcium Channel Type L, Dihydropyridine radioligand binding (ligand: [3H] Nitrendipine); format: cell membranes, Rattus norvegicus, Wistar, Cerebral cortex, Membrane; conditions: Not Active = under 50% inhibition at 10 µM
Cytochrome P450 2E1 = Cytochrome P450 2E1 (Homo sapiens, UniProt P05181); conditions: bti-tn-5b1-4; note: in other assays of this panel Not Active means under 50% inhibition at 10 µM
Cytochrome P450 2E1, sequence (P05181 whole entry): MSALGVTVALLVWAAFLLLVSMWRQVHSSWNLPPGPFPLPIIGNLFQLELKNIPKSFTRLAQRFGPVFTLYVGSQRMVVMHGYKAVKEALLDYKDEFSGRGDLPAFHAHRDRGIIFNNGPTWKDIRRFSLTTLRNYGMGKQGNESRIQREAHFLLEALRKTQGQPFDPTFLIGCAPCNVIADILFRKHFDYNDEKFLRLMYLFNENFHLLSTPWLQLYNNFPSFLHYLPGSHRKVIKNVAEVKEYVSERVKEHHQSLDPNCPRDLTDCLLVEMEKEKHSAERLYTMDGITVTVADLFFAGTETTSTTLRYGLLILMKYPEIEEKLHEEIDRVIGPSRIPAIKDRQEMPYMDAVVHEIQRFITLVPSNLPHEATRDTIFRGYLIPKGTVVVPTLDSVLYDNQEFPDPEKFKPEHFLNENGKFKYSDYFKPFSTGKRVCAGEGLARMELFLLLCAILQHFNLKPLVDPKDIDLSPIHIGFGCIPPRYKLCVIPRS

Beta-2 adrenergic receptor, sequence (P07550 whole entry): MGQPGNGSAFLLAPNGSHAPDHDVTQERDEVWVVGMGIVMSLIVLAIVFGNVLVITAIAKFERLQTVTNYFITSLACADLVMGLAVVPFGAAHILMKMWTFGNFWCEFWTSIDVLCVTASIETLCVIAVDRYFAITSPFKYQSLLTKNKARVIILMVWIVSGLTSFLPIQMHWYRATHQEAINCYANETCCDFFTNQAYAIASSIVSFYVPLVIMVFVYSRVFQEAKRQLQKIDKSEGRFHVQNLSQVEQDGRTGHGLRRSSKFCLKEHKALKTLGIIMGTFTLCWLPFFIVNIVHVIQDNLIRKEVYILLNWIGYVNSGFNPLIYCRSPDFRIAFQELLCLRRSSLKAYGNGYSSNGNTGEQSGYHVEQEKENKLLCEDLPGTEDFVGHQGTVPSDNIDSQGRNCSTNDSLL

| SMILES | IC50 [1] | Ki [1] | IC50 [2] | Ki [2] | IC50 [3] | Ki [3] | IC50 [4] | IC50 [5] | IC50 (Cytochrome P450 1A2) | Ki (Cytochrome P450 1A2) | IC50 [6] | Ki [6] | IC50 [7] | Ki [7] | IC50 (Cytochrome P450 2E1) | Ki (Cytochrome P450 2E1) | IC50 ([7]; read-out: IC50) [nM] | Ki ([7]; read-out: Ki) [nM] |
| --- | --- | --- | --- | --- | --- | --- | --- | --- | --- | --- | --- | --- | --- | --- | --- | --- | --- | --- |
| CCN1CC(CCN2CCOCC2)C(c2ccccc2)(c2ccccc2)C1=O (stereo not given) [DOXAPRAM] | Not Active | Not Active | Not Active | Not Active | Not Active | Not Active | Not Active | Not Active | Not Active | Not Active | Not Active | Not Active | Not Active | Not Active | Not Active | Not Active | – | – |
| Cn1c(=O)c2c(ncn2CC2OCCO2)n(C)c1=O [DOXOFYLLINE] | Not Active | Not Active | Not Active | Not Active | Not Active | Not Active | Not Active | Not Active | Not Active | Not Active | Not Active | Not Active | Not Active | Not Active | Not Active | Not Active | – | – |
| COc1cccc2c1C(=O)c1c(O)c3c(c(O)c1C2=O)C[C@@](O)(C(=O)CO)C[C@@H]3O[C@H]1C[C@H](N)[C@H](O)[C@H](C)O1 [DOXORUBICIN] | Not Active | Not Active | Not Active | Not Active | Not Active | Not Active | Not Active | Not Active | Not Active | Not Active | Not Active | Not Active | Not Active | Not Active | Not Active | Not Active | – | – |
| COc1cccc2c1C(=O)c1c(O)c3c(c(O)c1C2=O)C[C@@](O)(C(=O)CO)C[C@@H]3O[C@H]1C[C@H](N)[C@@H](O)[C@H](C)O1 [EPIRUBICIN] | Not Active | Not Active | Not Active | Not Active | Not Active | Not Active | Not Active | Not Active | Not Active | Not Active | Not Active | Not Active | Not Active | Not Active | Not Active | Not Active | – | – |
| C[C@]12CC[C@@H]3c4ccc(OC(=O)c5ccccc5)cc4CC[C@H]3[C@@H]1CC[C@@H]2O [ESTRADIOL BENZOATE] | Not Active | Not Active | Not Active | Not Active | Not Active | Not Active | Not Active | Not Active | Not Active | Not Active | Not Active | Not Active | Not Active | Not Active | Not Active | Not Active | – | – |
| C[C@]12CC[C@@H]3c4ccc(O)cc4CC[C@H]3[C@@H]1CC[C@@H]2O [ESTRADIOL] | Not Active | Not Active | Not Active | Not Active | Not Active | Not Active | Not Active | Not Active | Not Active | Not Active | Not Active | Not Active | Not Active | Not Active | Not Active | Not Active | – | – |
| CC[C@@H](CO)NCCN[C@@H](CC)CO [ETHAMBUTOL] | Not Active | Not Active | Not Active | Not Active | Not Active | Not Active | Not Active | Not Active | Not Active | Not Active | Not Active | Not Active | Not Active | Not Active | Not Active | Not Active | – | – |
| CC1(C)O[C@@H]2C[C@H]3[C@@H]4C[C@H](F)C5=CC(=O)C=C[C@]5(C)[C@H]4[C@@H](O)C[C@]3(C)[C@]2(C(=O)CO)O1 [FLUNISOLIDE] | Not Active | Not Active | Not Active | Not Active | Not Active | Not Active | Not Active | Not Active | Not Active | Not Active | Not Active | Not Active | Not Active | Not Active | Not Active | Not Active | – | – |
| CC1(C)O[C@@H]2C[C@H]3[C@@H]4C[C@H](F)C5=CC(=O)C=C[C@]5(C)[C@@]4(F)[C@@H](O)C[C@]3(C)[C@]2(C(=O)CO)O1 [FLUOCINOLONE ACETONIDE] | Not Active | Not Active | Not Active | Not Active | Not Active | Not Active | Not Active | Not Active | Not Active | Not Active | Not Active | Not Active | Not Active | Not Active | Not Active | Not Active | – | – |
| CC1(C)O[C@@H]2C[C@H]3[C@@H]4C[C@H](F)C5=CC(=O)CC[C@]5(C)[C@H]4[C@@H](O)C[C@]3(C)[C@]2(C(=O)CO)O1 [FLURANDRENOLIDE] | Not Active | Not Active | Not Active | Not Active | Not Active | Not Active | Not Active | Not Active | Not Active | Not Active | Not Active | Not Active | Not Active | Not Active | Not Active | Not Active | – | – |
| CN(C)c1ccc(C(=C2C=CC(=[N+](C)C)C=C2)c2ccc(N(C)C)cc2)cc1.[Cl-] [GENTIAN VIOLET] | Not Active | Not Active | Not Active | Not Active | Not Active | Not Active | Not Active | Not Active | Not Active | Not Active | Not Active | Not Active | – | – | Not Active | Not Active | 2130 | 1370 |
| Cc1ccc(S(=O)(=O)NC(=O)NN2CC3CCCC3C2)cc1 (stereo not given) [GLICLAZIDE] | Not Active | Not Active | Not Active | Not Active | Not Active | Not Active | Not Active | Not Active | Not Active | Not Active | Not Active | Not Active | Not Active | Not Active | Not Active | Not Active | – | – |
| CC(C)Cc1ccc(C(C)C(=O)O)cc1 (stereo not given) [IBUPROFEN] | Not Active | Not Active | Not Active | Not Active | Not Active | Not Active | Not Active | Not Active | Not Active | Not Active | Not Active | Not Active | Not Active | Not Active | Not Active | Not Active | – | – |
| COc1ccc2c(c1)c(CC(=O)O)c(C)n2C(=O)c1ccc(Cl)cc1 [INDOMETHACIN] | Not Active | Not Active | Not Active | Not Active | Not Active | Not Active | Not Active | Not Active | Not Active | Not Active | Not Active | Not Active | Not Active | Not Active | Not Active | Not Active | – | – |
| CCc1c2c(nc3ccc(OC(=O)N4CCC(N5CCCCC5)CC4)cc13)-c1cc3c(c(=O)n1C2)COC(=O)[C@]3(O)CC [IRINOTECAN] | Not Active | Not Active | Not Active | Not Active | Not Active | Not Active | Not Active | Not Active | Not Active | Not Active | Not Active | Not Active | Not Active | Not Active | Not Active | Not Active | – | – |
